According to article PMC9369295, “Key Residues Affecting Binding Affinity of Sirex noctilio Fabricius Odorant-Binding Protein (SnocOBP9) to Aggregation Pheromone” (International Journal of Molecular Sciences, 2022):
“Also recorded” adds a separate entry of the source. Like-named read-outs stand apart in the source and are kept apart here.

Assays:
SnocOBP9WT = SnocOBP9WT (Sirex noctilio, UniProt A0A857N3E7); experiment: Fluorescence competitive binding assay with 1-NPN probe, wild-type protein
SnocOBP9L116A = SnocOBP9L116A (Sirex noctilio, UniProt A0A857N3E7, L137A); experiment: Fluorescence binding assay with 1-NPN probe, mutant L116A
Description: (§1) To measure the binding affinity of the ligand to recombinant SnocOBP9, 1-NPN was selected as a fluorescent probe. Eleven host volatiles ((−)-Limonene, (+)-Limonene, 3-Carene, Alpha-Pinene and Beta-Pinene, Camphene, Beta-Myrcene, Beta-Ocimene, Sabinene, Hexanal and Eucalyptol), three insect pheromones ((Z)-3-Decen-ol, (Z)-4-Decen-ol and (E, E)-2,4-decadienal) and six symbiotic fungal volatile (Cyclopentanone, Geraniol 2-Hexene, (−)-Globulol, Linalol and 1-(3-ethylphenyl)ethenone) compounds were selected to bind with recombinant SnocOBP9. A multi-scan Spectrum Molecular Device Spectra Max i3 Fluorescence Spectrophotometer (Thermo Scientific, Wilmington, DE, USA) was used to conduct fluorescence competitive binding assays with an excitation wavelength of 337 nm. The emission spectra were recorded between 390 and 500 nm. The parameters were selected such that the slit widths for both excitation and emission were 10 nm. […] Intensity values corresponding to the maximum fluorescence emission were plotted against the free ligand concentrations to calculate the dissociation constant. Assuming the activity of the protein was 100%, and the stoichiometric ratio between the protein and the ligand was 1:1 when saturated, the bound ligand was determined from the fluorescence intensity value. The K1-NPN value was calculated by linearizing the curve using Scatchard plots. […]

SnocOBP9F57A = SnocOBP9F57A (Sirex noctilio, UniProt A0A857N3E7, F78A); experiment: Fluorescence binding assay with 1-NPN probe, mutant F57A
Description: as §1

SnocOBP9F74A = SnocOBP9F74A (Sirex noctilio, UniProt A0A857N3E7, F95A); experiment: Fluorescence binding assay with 1-NPN probe, mutant F74A
Description: as §1

SnocOBP9F71A = SnocOBP9F71A (Sirex noctilio, UniProt A0A857N3E7, F92A); experiment: Fluorescence binding assay with 1-NPN probe, mutant F71A
Description: as §1

SnocOBP9M54A = SnocOBP9M54A (Sirex noctilio, UniProt A0A857N3E7, M75A); experiment: Fluorescence binding assay with 1-NPN probe, mutant M54A
Description: as §1

[1] = protein and 1-NPN both 2 μM, ligand titrated to 1–20 μM, read-out: IC50

Sequence of SnocOBP9WT (A0A857N3E7 entry or part of it): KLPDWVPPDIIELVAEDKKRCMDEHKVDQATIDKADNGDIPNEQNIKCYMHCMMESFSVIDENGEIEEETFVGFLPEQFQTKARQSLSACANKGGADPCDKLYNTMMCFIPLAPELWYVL
Sequence of SnocOBP9F74A (A0A857N3E7 entry or part of it F95A): as the sequence (A0A857N3E7 entry or part of it) above, with F74A counted along it
Sequence of SnocOBP9F71A (A0A857N3E7 entry or part of it F92A): as the sequence (A0A857N3E7 entry or part of it) above, with F71A counted along it
Sequence of SnocOBP9M54A (A0A857N3E7 entry or part of it M75A): as the sequence (A0A857N3E7 entry or part of it) above, with M54A counted along it
Sequence of SnocOBP9L116A (A0A857N3E7 entry or part of it L137A): as the sequence (A0A857N3E7 entry or part of it) above, with L116A counted along it
Sequence of SnocOBP9F57A (A0A857N3E7 entry or part of it F78A): as the sequence (A0A857N3E7 entry or part of it) above, with F57A counted along it

Row | SMILES | IC50 (SnocOBP9WT; [1]) | IC50 (SnocOBP9WT) | also measured
1 | CC1=CCC2C(C1)C2(C)C (stereo not shown) [3-Carene] | > 20 µM | – | –
2 | CCCCC/C=C\CCCO [(Z)-4-Decen-ol] | > 20 µM | – | –
3 | CC=CCCC [2-Hexene] | > 20 µM | – | –
4 | C=C1C2CCC(C2)C1(C)C (stereo not shown) [Camphene] | > 20 µM | – | –
5 | C=C/C(C)=C/CC=C(C)C [Beta-Ocimene] | > 20 µM | – | –
6 | C[C@@H]1CC[C@@H]2[C@@H]1[C@H]1[C@@H](CC[C@@]2(C)O)C1(C)C [(−)-Globulol] | > 20 µM | – | –
7 | CC1=CCC2CC1C2(C)C (stereo not drawn) [Alpha-Pinene] | – | > 20 µM | –
8 | CCCCC/C=C/C=C/C=O [(E, E)-2,4-Decadienal] | > 20 µM | – | –
9 | c1ccc(Nc2cccc3ccccc23)cc1 [1-NPN, N-phenyl-1-naphthylamine, reference compound] | – | – | Kd (SnocOBP9WT): 6.87 ± 0.73 µM; Kd (SnocOBP9L116A): 17.5 ± 2.41 µM; Kd (SnocOBP9F57A): 4.49 ± 0.82 µM; Kd (SnocOBP9F74A): 18.4 ± 1.66 µM; Kd (SnocOBP9F71A): 1.27 ± 2.42 µM; Kd (SnocOBP9M54A): 7.61 ± 0.92 µM
10 | C=C1CCC2(C(C)C)CC12 (stereo not shown) [Sabinene] | > 20 µM | – | –
11 | C=C1CCC2CC1C2(C)C (stereo not drawn) [Beta-Pinene] | – | > 20 µM | –
12 | C=C(C)[C@H]1CC=C(C)CC1 [(+)-Limonene] | – | 6.09 ± 1.43 µM | Ki (SnocOBP9WT): 4.87 ± 0.94 µM
13 | O=C1CCCC1 [Cyclopentanone] | > 20 µM | – | –
14 | CC12CCC(CC1)C(C)(C)O2 [Eucalyptol] | > 20 µM | – | –
15 | CCCCCC=O [Hexanal] | – | > 20 µM | –
16 | C=CC(C)(O)CCC=C(C)C (stereo not shown) [Linalool] | – | > 20 µM | –
17 | C=CC(=C)CCC=C(C)C [Beta-Myrcene] | > 20 µM | – | –
18 | CCc1cccc(C(C)=O)c1 [1-(3-ethylphenyl)ethenone] | > 20 µM | – | –
19 | CCCCCC/C=C\CCO [Z3D, (Z)-3-decen-ol] | 1.92 ± 0.14 µM | – | Ki (SnocOBP9WT; protein and 1-NPN both 2 μM, ligand titrated to 1–20 μM, read-out: Ki): 1.53 ± 0.09 µM; binding affinity (fluorescence competitive assay) (SnocOBP9L116A; mutant LEU116 to ALA, Ki could not be calculated): no binding affinity; also recorded: never decreased below 50%; Ki (SnocOBP9F57A): 5.61 ± 0.5 µM; binding affinity (fluorescence competitive assay) (SnocOBP9F74A; mutant PHE74 to ALA, Ki could not be calculated): no binding affinity; also recorded: never decreased below 50%; binding affinity (fluorescence competitive assay) (SnocOBP9F71A; mutant PHE71 to ALA, Ki could not be calculated): no binding affinity; also recorded: never decreased below 50%; binding affinity (fluorescence competitive assay) (SnocOBP9M54A; mutant MET54 to ALA, Ki could not be calculated): no binding affinity; also recorded: never decreased below 50%
20 | CC(C)=CCC/C(C)=C/CO [Geraniol] | – | > 20 µM | –
21 | C=C(C)[C@@H]1CC=C(C)CC1 [(−)-Limonene] | – | 6.95 ± 0.61 µM | Ki (SnocOBP9WT): 5.5 ± 0.49 µM
